# Measurements reported in patent US20110009381A1, “SOLUBILIZED THIAZOLOPYRIDINES” (Sirtis Pharmaceuticals, Inc., priority 2007, published 2011).
# Target: T1, SIRT1 (Homo sapiens, UniProt Q96EB6)
# T1 sequence (Q96EB6 1-747): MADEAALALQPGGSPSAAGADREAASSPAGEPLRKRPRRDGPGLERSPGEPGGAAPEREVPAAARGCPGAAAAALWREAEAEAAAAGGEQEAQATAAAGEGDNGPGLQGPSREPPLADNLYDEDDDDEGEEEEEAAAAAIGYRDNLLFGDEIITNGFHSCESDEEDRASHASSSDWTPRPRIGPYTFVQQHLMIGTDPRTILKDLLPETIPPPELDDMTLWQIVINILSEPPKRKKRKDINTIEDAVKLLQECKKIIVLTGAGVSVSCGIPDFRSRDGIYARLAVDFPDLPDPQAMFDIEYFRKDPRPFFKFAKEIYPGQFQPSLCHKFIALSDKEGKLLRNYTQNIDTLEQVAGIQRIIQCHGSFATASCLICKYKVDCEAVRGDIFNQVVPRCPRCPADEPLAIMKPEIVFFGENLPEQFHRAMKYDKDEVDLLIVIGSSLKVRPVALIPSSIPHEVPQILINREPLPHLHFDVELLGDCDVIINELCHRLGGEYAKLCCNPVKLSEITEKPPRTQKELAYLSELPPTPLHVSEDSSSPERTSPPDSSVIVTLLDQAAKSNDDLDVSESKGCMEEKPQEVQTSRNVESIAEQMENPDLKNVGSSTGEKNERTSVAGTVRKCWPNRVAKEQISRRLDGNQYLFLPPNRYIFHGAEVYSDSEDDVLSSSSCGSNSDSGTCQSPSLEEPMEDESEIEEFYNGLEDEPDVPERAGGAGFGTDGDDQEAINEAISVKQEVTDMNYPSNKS
# Test: Mass spectrometry based assay to identify modulators of SIRT1 activity (deacetylation of p53-based acetylated peptide substrate)
# Format: biochemical
# Conditions: 10 nM SIRT1, 0.5 μM peptide substrate, 120 μM βNAD+, 25 minutes at 25° C.; for EC1.5: SIRT1 activation
# Outline: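 Activation measured on His-tagged SIRT1 (10 nM, E. coli-expressed) deacetylating a 0.5 μM p53-derived acetyl-peptide with 120 μM βNAD^+ for 25 min at 25 °C, pH 8 Tris-acetate. After formic acid stop, mass spectrometry quantified acetylated versus deacetylated peptide, referenced to DMSO and nicotinamide controls. Reported as EC1.5 and maximum fold activation.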
FOLD ACT. (percent maximum fold activation),EC1.5,Compound
A (Fold activation≧300%),A′ (EC1.5<250 nM),O=C(Nc1ccccc1-c1nc2cccnc2s1)c1cc(NC[C@@H](O)CO)nc(-c2ccccc2)n1 [Compound 106]
C (Fold Activation<150%),C (EC1.5>10 uM),CCCCNc1cc(C(=O)Nc2ccccc2-c2nc3cccnc3s2)nc(-c2ccccc2)n1 [Compound 42]
A (Fold activation≧300%),A (EC1.5≧250 nM and ≦1 uM),NCCNc1cc(C(=O)Nc2ccccc2-c2nc3cccnc3s2)nc(-c2ccccc2)n1 [Compound 83]
B (Fold Activation≧150% and <300%),A (EC1.5≧250 nM and ≦1 uM),O=C(Nc1ccccc1-c1nc2cccnc2s1)c1cc(OCCCO)nc(-c2ccccc2)n1 [Compound 102]
A (Fold activation≧300%),A′ (EC1.5<250 nM),Cl.O=C(Nc1ccccc1-c1nc2cccnc2s1)c1cc(NCCN2CCOCC2)nc(-c2ccccc2)n1 [Compound 61]
A (Fold activation≧300%),A (EC1.5≧250 nM and ≦1 uM),CC(C)NCCNc1cc(C(=O)Nc2ccccc2-c2nc3cccnc3s2)nc(-c2ccccc2)n1 [Compound 52]
A (Fold activation≧300%),A′ (EC1.5<250 nM),NCCCNc1cc(C(=O)Nc2ccccc2-c2nc3cccnc3s2)nc(-c2ccccc2)n1 [Compound 84]
C (Fold Activation<150%),C (EC1.5>10 uM),CNc1cc(C(=O)Nc2ccccc2-c2nc3cccnc3s2)nc(-c2ccccc2)n1 [Compound 64]
A (Fold activation≧300%),A′ (EC1.5<250 nM),O=C(Nc1ccccc1-c1nc2cccnc2s1)c1cc(NC(CO)CO)nc(-c2ccccc2)n1 [Compound 69]
A (Fold activation≧300%),A′ (EC1.5<250 nM),NCCOc1cc(C(=O)Nc2ccccc2-c2nc3cccnc3s2)nc(-c2ccccc2)n1 [Compound 152]
A (Fold activation≧300%),A (EC1.5≧250 nM and ≦1 uM),NCCCCNc1cc(C(=O)Nc2ccccc2-c2nc3cccnc3s2)nc(-c2ccccc2)n1 [Compound 87]
A (Fold activation≧300%),A′ (EC1.5<250 nM),O=C(Nc1ccccc1-c1nc2cccnc2s1)c1cc(NCCO)nc(-c2ccccc2)n1 [Compound 39]
A (Fold activation≧300%),A′ (EC1.5<250 nM),Cc1ccn(CCNc2cc(C(=O)Nc3ccccc3-c3nc4cccnc4s3)nc(-c3ccccc3)n2)n1 [Compound 78]
C (Fold Activation<150%),C (EC1.5>10 uM),O=C(Nc1ccccc1-c1nc2cccnc2s1)c1cc(Cl)nc(-c2ccccc2)n1 [Compound 8]

# More lines, now with the values behind:
Compound,FOLD ACT. (percent maximum fold activation),EC1.5
O=C(Nc1ccccc1-c1nc2ccncc2s1)c1cc(N2CCOCC2)nc(-c2ccccc2)n1 [Compound 22],A (Fold activation≧300%),A (EC1.5≧250 nM and ≦1 uM)
CN(C)CCNCCOc1cc(C(=O)Nc2ccccc2-c2nc3cccnc3s2)nc(-c2ccccc2)c1 [Compound 33],A (Fold activation≧300%),A′ (EC1.5<250 nM)
C[C@@H]1CN(CCOc2cc(C(=O)Nc3ccccc3-c3nc4cccnc4s3)nc(-c3ccccc3)c2)C[C@H](C)O1 [Compound 36],A (Fold activation≧300%),A′ (EC1.5<250 nM)
O=C(Nc1ccccc1-c1nc2cccnc2s1)c1cc(N2CCN3CCC[C@H]3C2)cc(-c2ccccc2)n1 [Compound 144],A (Fold activation≧300%),A′ (EC1.5<250 nM)
COCCN(CCOC)c1cc(C(=O)Nc2ccccc2-c2nc3cccnc3s2)nc(-c2ccccc2)c1 [Compound 130],A (Fold activation≧300%),A′ (EC1.5<250 nM)
COCCN1CCN(c2cc(C(=O)Nc3ccccc3-c3nc4ccncc4s3)nc(-c3ccccc3)n2)CC1 [Compound 25],A (Fold activation≧300%),A′ (EC1.5<250 nM)
COCCN1CCN(c2cc(C(=O)Nc3ccccc3-c3nc4cccnc4s3)nc(Cl)n2)CC1 [Compound 4],A (Fold activation≧300%),A (EC1.5≧250 nM and ≦1 uM)
COCCNc1cc(C(=O)Nc2ccccc2-c2nc3cccnc3s2)nc(-c2ccccc2)c1 [Compound 131],A (Fold activation≧300%),A′ (EC1.5<250 nM)
CS(=O)(=O)N1CCC(Nc2cc(C(=O)Nc3ccccc3-c3nc4cccnc4s3)nc(-c3ccccc3)n2)CC1 [Compound 135],A (Fold activation≧300%),A′ (EC1.5<250 nM)
CC(C)N1CCN(c2cc(C(=O)Nc3ccccc3-c3nc4ccncc4s3)nc(-c3ccccc3)n2)CC1 [Compound 24],A (Fold activation≧300%),A′ (EC1.5<250 nM)
O=C(Nc1ccccc1-c1nc2cccnc2s1)c1cc(NCCCn2ccnc2)cc(-c2ccccc2)n1 [Compound 141],A (Fold activation≧300%),A′ (EC1.5<250 nM)
COCCN(C)c1cc(C(=O)Nc2ccccc2-c2nc3ccncc3s2)nc(-c2ccccc2)n1 [Compound 29],A (Fold activation≧300%),A′ (EC1.5<250 nM)
CCN1CCC(Nc2cc(C(=O)Nc3ccccc3-c3nc4cccnc4s3)nc(-c3ccccc3)n2)CC1 [Compound 100],A (Fold activation≧300%),A′ (EC1.5<250 nM)
O=C(Nc1ccccc1-c1nc2cccnc2s1)c1cc(N2CCCCC2)nc(-c2ccccc2)n1 [Compound 21],C (Fold Activation<150%),C (EC1.5>10 uM)
COCCN(C)c1cc(C(=O)Nc2ccccc2-c2nc3cccnc3s2)nc(-c2ccccc2)n1 [Compound 47],A (Fold activation≧300%),A′ (EC1.5<250 nM)
O=C(Nc1ccccc1-c1nc2cccnc2s1)c1cc(NC2CCCNC2)nc(-c2ccccc2)n1 (stereo not shown) [Compound 72],A (Fold activation≧300%),A′ (EC1.5<250 nM)
C[C@@H]1CN(c2cc(C(=O)Nc3ccccc3-c3nc4cccnc4s3)nc(-c3ccccc3)n2)C[C@H](C)O1 [Compound 70],B (Fold Activation≧150% and <300%),A (EC1.5≧250 nM and ≦1 uM)
O=C(Nc1ccccc1-c1nc2cccnc2s1)c1cc(NC2CCCC2)nc(-c2ccccc2)n1 [Compound 20],C (Fold Activation<150%),C (EC1.5>10 uM)
O=C(Nc1ccccc1-c1nc2cccnc2s1)c1cc(C#CCO)nc(-c2ccccc2)n1 [Compound 79],C (Fold Activation<150%),C (EC1.5>10 uM)
C[C@H](Nc1cc(C(=O)Nc2ccccc2-c2nc3cccnc3s2)nc(-c2ccccc2)n1)C(=O)O [Compound 75],A (Fold activation≧300%),A (EC1.5≧250 nM and ≦1 uM)
CC1(C)OCC(CNc2cc(C(=O)Nc3ccccc3-c3nc4cccnc4s3)nc(-c3ccccc3)n2)O1 (stereo not shown) [Compound 96],A (Fold activation≧300%),A (EC1.5≧250 nM and ≦1 uM)
O=C(Nc1ccccc1-c1nc2cccnc2s1)c1cc(O)cc(-c2ccccc2)n1 [Compound 34],A (Fold activation≧300%),A (EC1.5≧250 nM and ≦1 uM)
O=C(Nc1ccccc1-c1nc2cccnc2s1)c1cc(NC2CCN(C(=O)c3ccccc3)CC2)nc(-c2ccccc2)n1 [Compound 136],B (Fold Activation≧150% and <300%),A (EC1.5≧250 nM and ≦1 uM)
O=C(Nc1ccccc1-c1nc2cccnc2s1)c1cc(CN2CCCC2)nc(-c2ccccc2)n1 [Compound 11],A (Fold activation≧300%),B (EC1.5>1 and ≦10 uM)
O=C(Nc1ccccc1-c1nc2cccnc2s1)c1cc(N[C@@H]2CCCNC2)nc(-c2ccccc2)n1 [Compound 95],A (Fold activation≧300%),A′ (EC1.5<250 nM)
CCN(CC)CCCOc1cc(C(=O)Nc2ccccc2-c2nc3cccnc3s2)nc(-c2ccccc2)n1 [Compound 93],A (Fold activation≧300%),A (EC1.5≧250 nM and ≦1 uM)
CC(C)N1CCC(Nc2cc(C(=O)Nc3ccccc3-c3nc4cccnc4s3)nc(-c3ccccc3)n2)CC1 [Compound 114],A (Fold activation≧300%),A′ (EC1.5<250 nM)
